US20160022714A1, “O-GLCNACYLATION TREATMENT FOR ISCHEMIC BRAIN INJURY” (THE RESEARCH FOUNDATION FOR MENTAL HYGIENE, INC., priority 2014, published 2016)
Entries after “also recorded” stand apart in the source; their conditions may differ.

Experiments:
[1] = system: MCAO mouse model (cerebral ischemia-reperfusion injury); assay: Brain infarct size by TTC staining after MCAO for 2 hrs followed by reperfusion for 24 hrs; type: in vivo; details: vs. saline; for infarct size / ischemia-induced brain damage: DON 2.6 μg/mouse, glucosamine 10 mg/mouse, thiamet-G 160 μg/mouse prior to ischemia, 24 hrs after ischemia-reperfusion
[2] = system: O-GlcNAcylation of brain proteins; assay: Western blots for O-GlcNAcylation of brain (striatum) homogenates from drug-treated mice 2 hrs after MCAO; type: in vivo, mouse; details: for brain O-GlcNAcylation level (change): mice treated prior to ischemia: DON 2.6 μg/mouse, glucosamine 10 mg/mouse, thiamet-G 160 μg/mouse, brain samples 2 hrs after ischemic insult
[3] = system: MCAO mouse model (cerebral ischemia-reperfusion injury); assay: Scores of motor deficits (5-point neurological scoring) after MCAO for 2 hrs and reperfusion for 1 hr; type: in vivo; details: vs. saline
[4] = DON 2.6 μg/mouse, glucosamine 10 mg/mouse, thiamet-G 160 μg/mouse prior to ischemia, one hour after ischemia-reperfusion

[N-]=[N+]=CC(=O)CC[C@H](N)C(=O)O [DON, 6-diazo-5-oxonorleucine]
infarct size / ischemia-induced brain damage [1]: aggravated; also recorded: increased | brain O-GlcNAcylation level (change) [2]: reduction; also recorded: reduced | motor deficits [3, 4]: aggravated; also recorded: increased

N[C@H]1C(O)O[C@H](CO)[C@@H](O)[C@@H]1O (stereo partly shown) [glucosamine]
infarct size / ischemia-induced brain damage [1]: ameliorated; also recorded: reduced | brain O-GlcNAcylation level (change) [2]: moderate elevation | motor deficits [3, 4]: ameliorated; also recorded: reduced

CCN=C1N[C@@H]2[C@@H](O)[C@H](O)[C@@H](CO)O[C@@H]2S1 [thiamet-G]
infarct size / ischemia-induced brain damage [1]: more severe brain damage; also recorded: worsened | infarct size ([1]; thiamet-G 0.1 μg/mouse, icy injection, MCAO 2 hrs, reperfusion 24 hrs): reduced | brain O-GlcNAcylation level (change) [2]: elevation | elevation of O-GlcNAcylation ([2]; thiamet-G 0.1 μg/mouse, icy injection 24 hrs before MCAO, compared with 10 mg glucosamine/mouse i.p.): comparable elevation | elevation of O-GlcNAcylation ([2]; thiamet-G initial dose 160 μg/mouse, 2 hrs after MCAO): > 6 fold | motor deficits [3, 4]: more severe; also recorded: worsened | motor deficits ([3]; thiamet-G 0.1 μg/mouse, icy injection, MCAO 2 hrs, reperfusion 1 hr): reduced
